How the values were obtained:
[1] = Metabolite ID assay in human liver microsomes; format: in vitro ADME; conditions: human liver microsomes 1 mg/mL, 1 mM NADPH, 5 μM substrate, 0, 30, 60 minutes
Protocol: The metabolic stability of Example 3 and Comparative Example 1 in human liver microsmoes was conducted according to the following procedure. Human liver microsomes (35 μL protein concentration 20 mg/mL), 350 μL of 100 mM potassium phosphate buffer (pH 7.4), 245 μL of deionized water and 0.7 μL of compound stock solution (5 mM) were combined in a 1.5 mL microcentrifuge tube. The tube was sealed and gently vortexed for 10 seconds, then placed in an Eppendorf ThermoMixer C and pre-warmed at 37° C. with shaking at 1100 rpm for 5 minutes.
NADPH solution (70 μL; 10 mM in water) was added while shaking, the mixture was aspirated several times with pipet, and 200 μL was removed to a fresh 1.5 mL microcentrifuge tube on ice containing 200 μL of cold acetonitrile. […]
The chilled aliquots were centrifuged at 14,300 rpm in a microcentrifuge for 10 minutes at 10° C., then the supernatant was transferred to a deepwell (1 mL) 96 well plate and sealed with a silicon mat. […] 20 μL samples were analyzed by UPLC-MS in order to identify and quantify the metabolites (Agilent 1290 G4220 binary pump UPLC with Agilent G1316 TCC column oven; Waters Acquity UPLC BEH C18 (130 Å pore size, 1.7 μm particle size, 2.1×50 mm) column held at 40° C.; Agilent 1290 G4212 DAD diode array with wavelength range 190 to 400 nm; Thermo Electron Orbitrap Elite mass spectrometer in FTMS positive mode). […]

[2] = Drug concentration in plasma of Cynomolgus monkey after oral dosing; format: in vivo; conditions: 300 mg/kg
Excerpt: Each dosing group consisted of three male Cynomolgus monkeys.

formation of diol metabolite M1 [1] | maximal plasma AUC of the two compounds compared [2] | Structure (SMILES)
metabolized to a diol compound (M1) | – | O=C(O)c1cnc(N2CC(O)(c3ccc(OCc4c(-c5c(Cl)cccc5Cl)noc4C4CC4)cc3Cl)C2)c(F)c1 [Comparative Example 1]
– | comparable | O=C(O)c1cnc(N2CC(O)(c3ccc(OCc4c(-c5c(Cl)cc(F)cc5Cl)noc4C4CC4)cc3Cl)C2)c(F)c1 [Example 3, 6-(3-(2-chloro-4-((5-cyclopropyl-3-(2,6-dichloro-4-fluorophenyl)isoxazol-4-yl)methoxy)phenyl)-3-hydroxyazetidin-1-yl)-5-fluoronicotinic acid]
